The target in one assay is T1, E. coli CsgA (Escherichia coli, UniProt P28307).
T1 construct: made in house; host or cells: E. coli NEB 3016 slyD::kan, pET11d
Put plainly: In vitro ThioflavinT assay of CsgA aggregation (CsgA ThT Assay). Type of assay: biochemical. Conditions: for remaining activity at 25 µM: compound 25 μM; for remaining activity at 100 µM: compound 100 μM. A digest of the protocol: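 Purified C-terminal His-tagged CsgA, monomerised by desalting and 30-kDa filtration, at 2-20 μM with 20-40 μM ThT in 50 mM potassium phosphate pH 7.3, 1% DMSO, compounds 3.125-200 uM; room temperature, fluorescence (ex 438/em 495 nm) read every 15 min. Background-subtracted signal expressed as percent inhibition versus vehicle at 6-6.5 or 8-9 h, or as percent control AUC.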

For assay [1], the system named is CsgA gene expression (csgBAC promoter-GFP reporter) in E. coli UTI89. In words: In vitro live cell fluorescent reporter assay of CsgA transcription (Reporter Assay). Conditions: Escherichia coli. Type of assay: cell-based. The essentials:
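Chromosomal single-copy csgBAC promoter–GFP reporter in E. coli UTI89, started at OD600 0.003 in YESCA broth with compound (0.14–100 μM, 1% DMSO), 20 h at 27 °C. GFP (ex 485/em 525 nm) background-subtracted and normalized to vehicle; IC50 and X[50] from curve fits. OD600 tracked growth effects.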

Setting [2] is: read-out: CsgA ThT Assay (10 μM CsgA) % Control AUC at 1005 minutes, 25 μM (activity range), CsgA 10 μM, black plates, 1005 minutes, class symbol.
Where [3] appears, read: read-out: CsgA ThT Assay (10 μM CsgA) % Control AUC at 1005 minutes, 25 μM, mean AUC as % of DMSO control, CsgA 10 μM, black plates, 1005 minutes.
The mark [4] stands for this setting: read-out: CsgA ThT Assay (10 μM CsgA) % Control AUC at 1005 minutes, 100 μM (activity range), CsgA 10 μM, black plates, 1005 minutes, class symbol.
The mark [5] stands for this setting: read-out: CsgA ThT Assay (10 μM CsgA) % Control AUC at 1005 minutes, 100 μM, mean AUC as % of DMSO control, CsgA 10 μM, black plates, 1005 minutes.
[6] abbreviates: read-out: Reporter Assay Abs IC50 (activity range), median Abs IC50 in the CsgA reporter assay, class symbol.
Setting [7] is: read-out: Reporter Assay Abs IC50 (μM), median Abs IC50 in the CsgA reporter assay, N/A = maximum expression reduction is <50% of control.
The mark [8] stands for this setting: read-out: CsgA ThT Assay (2 μM CsgA) % Control Bmax 25 μM, activity range, class symbol, CsgA 2 μM, white plates.
Setting [9] is: read-out: CsgA ThT Assay (2 μM CsgA) % Control Bmax 25 μM, mean Bmax as percentage of DMSO control, CsgA 2 μM, white plates.
Where [10] appears, read: read-out: CsgA ThT Assay (2 μM CsgA) % Control Bmax 100 μM, activity range, class symbol, CsgA 2 μM, white plates.
Where [11] appears, read: read-out: CsgA ThT Assay (2 μM CsgA) % Control Bmax 100 μM, mean Bmax as percentage of DMSO control, CsgA 2 μM, white plates.
Where [12] appears, read: read-out: Reporter Assay Abs IC50, activity range, class symbol.

Where two headings read alike, the source gives them in different places.

T1 sequence (P28307 23-151): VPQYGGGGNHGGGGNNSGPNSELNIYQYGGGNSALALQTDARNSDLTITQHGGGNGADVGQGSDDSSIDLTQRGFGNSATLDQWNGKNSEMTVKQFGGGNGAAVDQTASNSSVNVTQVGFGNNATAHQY

As to `CCCN1CC(C(=O)O)n2c(c(-c3cccc(C(F)(F)F)c3)c(Cc3cccc4ccccc34)c(CC)c2=O)S1(=O)=O` (stereo not drawn) [Compound 117, 7-ethyl-8-(naphthalen-1-ylmethyl)-6-oxo-2-propyl-9-(3-(trifluoromethyl)phenyl)-3,4-dihydro-2H,6H-pyrido[1,2-e][1,2,5]thiadiazine-4-carboxylic acid 1,1-dioxide], the remaining activity at 25 µM is 31 to 60% at E. coli CsgA (setting [2]) and 32% at E. coli CsgA (setting [3]). Also, the remaining activity at 100 µM on E. coli CsgA (setting [4]) is 11 to 31%; on E. coli CsgA (setting [5]), 22%. For the same compound, the IC50 is 4.6 to 10 µM in assay [1] (setting [6]) and 5.9 µM in assay [1] (setting [7]).
`O=c1cc(Cc2cccc3ccccc23)c(-c2cccc(C(F)(F)F)c2)c2n1C(CO)CS2` (stereo not drawn) [Compound 118, 3-(hydroxymethyl)-7-(naphthalen-1-ylmethyl)-8-(3-(trifluoromethyl)phenyl)-2,3-dihydro-5H-thiazolo[3,2-a]pyridin-5-one]: the remaining activity at 25 µM at E. coli CsgA (setting [2]) was over 60%; on E. coli CsgA (setting [3]), 92%. The remaining activity at 100 µM was over 60% at E. coli CsgA (setting [4]) and 76% on E. coli CsgA (setting [5]). Moreover, the concentration for half-maximal inhibition (IC50) is 1.3 to 4.5 µM in assay [1] (setting [6]) and 3.9 µM in assay [1] (setting [7]).
Take `CCc1c(Cc2cccc3ccccc23)c(-c2cccc(C(F)(F)F)c2)c2n(c1=O)C(C(=O)O)CN([C@H]1CC[C@@H](O)CC1)S2(=O)=O` (stereo partly drawn) [Compound 124, 7-ethyl-2-((1s,4s)-4-hydroxycyclohexyl)-8-(naphthalen-1-ylmethyl)-6-oxo-9-(3-(trifluoromethyl)phenyl)-3,4-dihydro-2H,6H-pyrido[1,2-e][1,2,5]thiadiazine-4-carboxylic acid 1,1-dioxide]: the remaining activity at 25 µM was 31 to 60% at E. coli CsgA (setting [2]) and 35% at E. coli CsgA (setting [3]). The results for the remaining activity at 100 µM at E. coli CsgA (setting [4]) and at E. coli CsgA (setting [5]) were 11 to 31% and 21%, respectively. The IC50 in assay [1] (setting [6]) is 1.3 to 4.5 µM; in assay [1] (setting [7]), 3.1 µM.
Regarding `CCCN1CC(C(=O)O)n2c(c(-c3cccc(C(F)(F)F)c3)c(Cc3cccc4ccccc34)c(C(C)C)c2=O)S1(=O)=O` (stereo not drawn) [Compound 125, 7-isopropyl-8-(naphthalen-1-ylmethyl)-6-oxo-2-propyl-9-(3-(trifluoromethyl)phenyl)-3,4-dihydro-2H,6H-pyrido[1,2-e][1,2,5]thiadiazine-4-carboxylic acid 1,1-dioxide], the remaining activity at 25 µM on E. coli CsgA (setting [2]) was 11 to 31%; at E. coli CsgA (setting [3]), 25%. The remaining activity at 100 µM at E. coli CsgA (setting [4]) is 31 to 60%; at E. coli CsgA (setting [5]), 44%. For the same compound, the figures for the IC50 in assay [1] (setting [6]) and in assay [1] (setting [7]) were 1.3 to 4.5 µM and 2.7 µM, respectively.
In the case of `CCCN1CC(C(=O)O)n2c(c(-c3cccc(C(F)(F)F)c3)c(Cc3cccc4ccccc34)c(NCC3CCCC3)c2=O)S1(=O)=O` (stereo not drawn) [Compound 128, 7-((cyclopentylmethyl)amino)-8-(naphthalen-1-ylmethyl)-6-oxo-2-propyl-9-(3-(trifluoromethyl)phenyl)-3,4-dihydro-2H,6H-pyrido[1,2-e][1,2,5]thiadiazine-4-carboxylic acid 1,1-dioxide], the remaining activity at 25 µM at E. coli CsgA (setting [2]) is 11 to 31%; on E. coli CsgA (setting [3]) it was 29%. The figures for the remaining activity at 100 µM at E. coli CsgA (setting [4]) and at E. coli CsgA (setting [5]) were 11 to 31% and 28%, respectively. The concentration for half-maximal inhibition (IC50) in assay [1] (setting [6]) is 1.3 to 4.5 µM; in assay [1] (setting [7]), 2.2 µM.
As for `O=C(O)CC1CSc2c(-c3cccc(C(F)(F)F)c3)c(Cc3cccc4ccccc34)cc(=O)n21` (stereo not drawn) [Compound 129, 2-(7-(naphthalen-1-ylmethyl)-5-oxo-8-(3-(trifluoromethyl)phenyl)-2,3-dihydro-5H-thiazolo[3,2-a]pyridin-3-yl)acetic acid], the remaining activity at 25 µM at E. coli CsgA (setting [2]) is 11 to 31%; at E. coli CsgA (setting [3]), 28%. Also, the remaining activity at 100 µM at E. coli CsgA (setting [4]) is over 60%; on E. coli CsgA (setting [5]), 61%. For the same compound, the half-inhibitory concentration (IC50) in assay [1] (setting [6]) was 1.3 to 4.5 µM; in assay [1] (setting [7]), 3.4 µM.
As to `O=C(O)CC1CS(=O)(=O)c2c(-c3cccc(C(F)(F)F)c3)c(Cc3cccc4ccccc34)cc(=O)n21` (stereo not drawn) [Compound 130, 2-(7-(naphthalen-1-ylmethyl)-1,1-dioxido-5-oxo-8-(3-(trifluoromethyl)phenyl)-2,3-dihydro-5H-thiazolo[3,2-a]pyridin-3-yl)acetic acid], the values for the remaining activity at 25 µM at E. coli CsgA (setting [2]) and at E. coli CsgA (setting [3]) were 31 to 60% and 49%, respectively. In addition, the remaining activity at 100 µM on E. coli CsgA (setting [4]) is 11 to 31%; on E. coli CsgA (setting [5]), 15%. Also, the concentration for half-maximal inhibition (IC50) in assay [1] (setting [6]) is over 10 µM; in assay [1] (setting [7]), 14.8 µM.
Take `O=C(O)C1CN(C2CCCCC2)S(=O)(=O)c2c(-c3cccc(C(F)(F)F)c3)c(Cc3cccc4ccccc34)c(NC3CCCC3)c(=O)n21` (stereo not drawn) [Compound 131, 2-cyclohexyl-7-(cyclopentylamino)-8-(naphthalen-1-ylmethyl)-6-oxo-9-(3-(trifluoromethyl)phenyl)-3,4-dihydro-2H,6H-pyrido[1,2-e][1,2,5]thiadiazine-4-carboxylic acid 1,1-dioxide]: the remaining activity at 25 µM on E. coli CsgA (setting [8]) was 31 to 60%; at E. coli CsgA (setting [9]), 53%. For the same compound, the remaining activity at 100 µM on E. coli CsgA (setting [10]) was over 60%; on E. coli CsgA (setting [11]), 94%. Besides, the results for the IC50 in assay [1] (setting [7]) and in assay [1] (setting [12]) were 0.9 µM and under 1.3 µM, respectively.
For `CCCN1CC(C(=O)O)n2c(c(-c3cccc(C(F)(F)F)c3)c(Cc3cccc4ccccc34)c(C3CC3)c2=O)S1(=O)=O` (stereo not drawn) [Compound 132, 7-cyclopropyl-8-(naphthalen-1-ylmethyl)-6-oxo-2-propyl-9-(3-(trifluoromethyl)phenyl)-3,4-dihydro-2H,6H-pyrido[1,2-e][1,2,5]thiadiazine-4-carboxylic acid 1,1-dioxide], the remaining activity at 25 µM at E. coli CsgA (setting [8]) is over 60%; at E. coli CsgA (setting [9]) it was 76%. The remaining activity at 100 µM was over 60% on E. coli CsgA (setting [10]) and 122% on E. coli CsgA (setting [11]). For the same compound, the IC50 in assay [1] (setting [7]) is 2.4 µM; in assay [1] (setting [12]), 1.3 to 4.5 µM.
As to `O=C(O)C1CNc2c(-c3cccc(C(F)(F)F)c3)c(Cc3cccc4ccccc34)c(Br)c(=O)n21` (stereo not drawn) [Compound 133, 6-bromo-7-(naphthalen-1-ylmethyl)-5-oxo-8-(3-(trifluoromethyl)phenyl)-1,2,3,5-tetrahydroimidazo[1,2-a]pyridine-3-carboxylic acid], the figures for the remaining activity at 25 µM on E. coli CsgA (setting [8]) and on E. coli CsgA (setting [9]) were over 60% and 71%, respectively. Further, the remaining activity at 100 µM at E. coli CsgA (setting [10]) is 31 to 60%; at E. coli CsgA (setting [11]), 36%. The half-maximal inhibitory concentration (IC50) in assay [1] (setting [7]) was 3.7 µM; in assay [1] (setting [12]) it was 1.3 to 4.5 µM.
With `O=C(O)C1CNc2c(-c3cccc(C(F)(F)F)c3)c(C(F)(F)c3cccc4ccccc34)cc(=O)n21` (stereo not drawn) [Compound 134, 7-(difluoro(naphthalen-1-yl)methyl)-5-oxo-8-(3-(trifluoromethyl)phenyl)-1,2,3,5-tetrahydroimidazo[1,2-a]pyridine-3-carboxylic acid], the remaining activity at 25 µM was over 60% at E. coli CsgA (setting [8]) and 92% on E. coli CsgA (setting [9]). Also, the remaining activity at 100 µM is over 60% at E. coli CsgA (setting [10]) and 66% on E. coli CsgA (setting [11]). Besides, the half-maximal inhibitory concentration (IC50) was 15.6 µM in assay [1] (setting [7]) and over 10 µM in assay [1] (setting [12]).
Consider `CN1CC(C(=O)O)n2c1c(-c1cccc(C(F)(F)F)c1)c(C(F)(F)c1cccc3ccccc13)cc2=O` (stereo not drawn) [Compound 135, 7-(difluoro(naphthalen-1-yl)methyl)-1-methyl-5-oxo-8-(3-(trifluoromethyl)phenyl)-1,2,3,5-tetrahydroimidazo[1,2-a]pyridine-3-carboxylic acid], for which the remaining activity at 25 µM on E. coli CsgA (setting [8]) was over 60%; at E. coli CsgA (setting [9]), 88%. The remaining activity at 100 µM on E. coli CsgA (setting [10]) is over 60%; on E. coli CsgA (setting [11]) it was 67%. Also, the IC50 in assay [1] (setting [7]) was 4 µM; in assay [1] (setting [12]), 1.3 to 4.5 µM.
Regarding `CCc1c(Cc2cccc3ccccc23)c(-c2cccc(C(F)(F)F)c2)c2n(c1=O)C(C(=O)O)CN2C` (stereo not drawn) [Compound 136, 6-ethyl-1-methyl-7-(naphthalen-1-ylmethyl)-5-oxo-8-(3-(trifluoromethyl)phenyl)-1,2,3,5-tetrahydroimidazo[1,2-a]pyridine-3-carboxylic acid], the results for the remaining activity at 25 µM on E. coli CsgA (setting [8]) and on E. coli CsgA (setting [9]) were over 60% and 77%, respectively. Also, the remaining activity at 100 µM at E. coli CsgA (setting [10]) is 11 to 31%; at E. coli CsgA (setting [11]) it was 27%. Besides, the IC50 in assay [1] (setting [7]) is 3.5 µM; in assay [1] (setting [12]), 1.3 to 4.5 µM.

The values above are taken from patent US20230131899A1, “INHIBITORS OF MICROBIALLY INDUCED AMYLOID” (Axial Therapeutics, Inc., priority 2020, published 2023).
